Data on eleven compounds can be found in US20230063238A1, “IMMUNOMODULATORS” (Bristol-Myers Squibb Company, priority 2020, published 2023).

For orientation: IC50 means the concentration needed to halve the response being measured.

Starred links: 1 amine or outer side, 2 acyl side, 3 side chain; linkers in the order of their positions; H or OH if unused. Positions of bridges follow the written chain, without caps; N, C: chain ends. Non-standard residues stand in square brackets, D forms with d. Residues, ends and D or L forms follow the SMILES beside them. *: point of attachment. Trp(1-CH2CO2Me) = COC(=O)Cn1cc(C[C@H](N)C(=O)O)c2ccccc21; Trp(1-CH2COOH) = N[C@@H](Cc1cn(CC(=O)O)c2ccccc12)C(=O)O; Hyp = O=C(O)[C@@H]1C[C@@H](O)CN1; Methoxyoxalyl = COC(=O)C(=O)*; Oxalyl = O=C(C(=O)[*:2])[*:1]; NMeNle = CCCC[C@H](NC)C(=O)O; X10 = Cc1cc(NC(=O)C(=O)*)no1; X2 = CCc1nnc(NC(=O)C(=O)*)s1; X4 = O=C(Nc1cccc(F)c1)C(=O)*; X6 = CN1CCN(C(=O)C(=O)*)CC1; X1 = O=C(Oc1ccccc1)C(=O)*; NMeA = CN[C@@H](C)C(=O)O; Dab = NCC[C@H](N)C(=O)O; Dap = NC[C@H](N)C(=O)O; Oxamoyl = NC(=O)C(=O)*; X7 = CN(C)C(=O)C(=O)*

For the test, the target named is T1, PD-1/PD-L1 (Homo sapiens, UniProt Q9NZQ7).
T1 construct: TVMV protease site linker (C); made in house; host or cells: HEK293T cells
T1 sequence (Q9NZQ7 18-239): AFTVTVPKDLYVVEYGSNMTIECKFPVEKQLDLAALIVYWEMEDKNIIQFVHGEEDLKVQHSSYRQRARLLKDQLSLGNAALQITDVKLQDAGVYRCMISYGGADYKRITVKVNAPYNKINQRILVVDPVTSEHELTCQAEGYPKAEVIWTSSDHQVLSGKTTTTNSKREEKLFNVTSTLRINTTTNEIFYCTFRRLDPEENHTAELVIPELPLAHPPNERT
Kind of test: PD-1/PD-L1 Homogenous Time-Resolved Fluorescence (HTRF) binding assay. Conditions: PD-L1-His 10 nM final, PD-1-Ig 20 nM final; inhibitors pre-incubated with PD-L1-His for 15 m. The source says:
The ability of the compounds of formula (I) to bind to PD-L1 was investigated using a PD-1/PD-L1 Homogenous Time-Resolved Fluorescence (HTRF) binding assay.
Homogenous Time-Resolved Fluorescence (HTRF) Binding Assay
The interaction of PD-1 and PD-L1 can be assessed using soluble, purified preparations of the extracellular domains of the two proteins. The PD-1 and PD-L1 protein extracellular domains were expressed as fusion proteins with detection tags, for PD-1, the tag was the Fc portion of Immunoglobulin (PD-1-Ig) and for PD-L1 it was the 6 histidine motif (PD-L1-His). All binding studies were performed in an HTRF assay buffer consisting of dPBS supplemented with 0.1% […] bovine serum albumin and 0.05% (v/v) Tween-20. For the h/PD-L1-His binding assay, inhibitors were pre-incubated with PD-L1-His (10 nM final) for 15 m in 4 μl of assay buffer, followed by addition of PD-1-Ig (20 nM final) in 1 μl of assay buffer and further incubation for 15m. HTRF detection was achieved using europium crypate-labeled anti-Ig (1 nM final) and allophycocyanin (APC) labeled anti-His (20 nM final). Antibodies were diluted in HTRF detection buffer and 5 μl was dispensed on top of the binding reaction. The reaction mixture was allowed to equilibrate for 30 minutes and the resulting signal (665 nm/620 nm ratio) was obtained using an EnVision fluorometer. Additional binding assays were established between the human proteins PD-1-Ig/PD-L2-His (20 & 5 nM, respectively) and CD80-His/PD-L1-Ig (100 & 10 nM, respectively).
Recombinant Proteins: Human PD-1 (25-167) with a C-terminal human Fc domain of immunoglobulin G (Ig) epitope tag [hPD-1 (25-167)-3S-IG] and human PD-L1 (18-239) with a C-terminal His epitope tag [hPD-L1(18-239)-TVMV-His] were expressed in HEK293T cells and purified sequentially by ProteinA affinity chromatography and size exclusion chromatography. Human PD-L2-His and CD80-His was obtained through commercial sources.
Table 1 lists the IC50 values for representative examples of this disclosure measured in the PD-1/PD-L1 Homogenous Time-Resolved Fluorescence (HTRF) binding assay.
A general note: In TR-FRET formats the signal depends on donor and acceptor labels being close together.

The compound `CCCC[C@H]1C(=O)N(C)[C@@H](CCCC)C(=O)N[C@@H](CC(C)C)C(=O)N[C@H](C(=O)NCC(N)=O)CSCC(=O)N[C@@H](Cc2ccc(O)cc2)C(=O)N(C)[C@@H](C)C(=O)N[C@@H](CC(N)=O)C(=O)N2CCC[C@H]2C(=O)N[C@@H](CNC(=O)C(=O)OC)C(=O)N[C@@H](CC(C)C)C(=O)N2C[C@H](O)C[C@H]2C(=O)N[C@@H](Cc2c[nH]c3ccccc23)C(=O)N[C@@H](CCNC(=O)C(=O)OC)C(=O)N[C@@H](Cc2cn(CC(=O)OC)c3ccccc23)C(=O)N1C` [Compound 3001] ({CH2CO}-Y[NMeA]NP[Dap](Methoxyoxalyl)L[Hyp]W[Dab](Methoxyoxalyl)[Trp(1-CH2CO2Me)][NMeNle][NMeNle]LCG-NH2; thioether N-14) came in with an IC50 of 6.3 nM. This counts as single-digit nanomolar.
Next, `CCCC[C@H]1C(=O)N(C)[C@@H](CCCC)C(=O)N[C@@H](CC(C)C)C(=O)N[C@H](C(=O)NCC(N)=O)CSCC(=O)N[C@@H](Cc2ccc(O)cc2)C(=O)N(C)[C@@H](C)C(=O)N[C@@H](CC(N)=O)C(=O)N2CCC[C@H]2C(=O)N[C@@H](CNC(=O)C(=O)N2CCN(C)CC2)C(=O)N[C@@H](CC(C)C)C(=O)N2C[C@H](O)C[C@H]2C(=O)N[C@@H](Cc2c[nH]c3ccccc23)C(=O)N[C@@H](CCNC(=O)C(=O)N2CCN(C)CC2)C(=O)N[C@@H](Cc2cn(CC(=O)OC)c3ccccc23)C(=O)N1C` [Compound 2007] ({CH2CO}-Y[NMeA]NP[Dap](X6)L[Hyp]W[Dab](X6)[Trp(1-CH2CO2Me)][NMeNle][NMeNle]LCG-NH2; thioether N-14): 9.1 nM.
Next, `CCCC[C@H]1C(=O)N(C)[C@@H](CCCC)C(=O)N[C@@H](CC(C)C)C(=O)N[C@H](C(=O)NCC(N)=O)CSCC(=O)N[C@@H](Cc2ccc(O)cc2)C(=O)N(C)[C@@H](C)C(=O)N[C@@H](CC(N)=O)C(=O)N2CCC[C@H]2C(=O)N[C@@H](CNC(=O)C(=O)Nc2cc(C)on2)C(=O)N[C@@H](CC(C)C)C(=O)N2C[C@H](O)C[C@H]2C(=O)N[C@@H](Cc2c[nH]c3ccccc23)C(=O)N[C@@H](CCNC(=O)C(=O)Nc2cc(C)on2)C(=O)N[C@@H](Cc2cn(CC(=O)OC)c3ccccc23)C(=O)N1C` [Compound 2004] ({CH2CO}-Y[NMeA]NP[Dap](X10)L[Hyp]W[Dab](X10)[Trp(1-CH2CO2Me)][NMeNle][NMeNle]LCG-NH2; thioether N-14): 3 nM.
The compound `CCCC[C@H]1C(=O)N(C)[C@@H](CCCC)C(=O)N[C@@H](CC(C)C)C(=O)N[C@H](C(=O)NCC(N)=O)CSCC(=O)N[C@@H](Cc2ccc(O)cc2)C(=O)N(C)[C@@H](C)C(=O)N[C@@H](CC(N)=O)C(=O)N2CCC[C@H]2C(=O)N[C@@H](CNC(=O)C(N)=O)C(=O)N[C@@H](CC(C)C)C(=O)N2C[C@H](O)C[C@H]2C(=O)N[C@@H](Cc2c[nH]c3ccccc23)C(=O)N[C@@H](CCNC(=O)C(N)=O)C(=O)N[C@@H](Cc2cn(CC(=O)OC)c3ccccc23)C(=O)N1C` [Compound 2006] ({CH2CO}-Y[NMeA]NP[Dap](Oxamoyl)L[Hyp]W[Dab](Oxamoyl)[Trp(1-CH2CO2Me)][NMeNle][NMeNle]LCG-NH2; thioether N-14) yielded an IC50 of 2.7 nM.
Next, `CCCC[C@H]1C(=O)N(C)[C@@H](CCCC)C(=O)N[C@@H](CC(C)C)C(=O)N[C@H](C(=O)NCC(N)=O)CSCC(=O)N[C@@H](Cc2ccc(O)cc2)C(=O)N(C)[C@@H](C)C(=O)N[C@@H](CC(N)=O)C(=O)N2CCC[C@H]2C(=O)N[C@@H](CNC(=O)C(=O)Nc2nnc(CC)s2)C(=O)N[C@@H](CC(C)C)C(=O)N2C[C@H](O)C[C@H]2C(=O)N[C@@H](Cc2c[nH]c3ccccc23)C(=O)N[C@@H](CCNC(=O)C(=O)Nc2nnc(CC)s2)C(=O)N[C@@H](Cc2cn(CC(=O)OC)c3ccccc23)C(=O)N1C` [Compound 2008] ({CH2CO}-Y[NMeA]NP[Dap](X2)L[Hyp]W[Dab](X2)[Trp(1-CH2CO2Me)][NMeNle][NMeNle]LCG-NH2; thioether N-14): 3.2 nM; `CCCC[C@H]1C(=O)N(C)[C@@H](CCCC)C(=O)N[C@@H](CC(C)C)C(=O)N[C@H](C(=O)NCC(N)=O)CSCC(=O)N[C@@H](Cc2ccc(O)cc2)C(=O)N(C)[C@@H](C)C(=O)N[C@@H](CC(N)=O)C(=O)N2CCC[C@H]2C(=O)N[C@@H](CNC(=O)C(=O)N(C)C)C(=O)N[C@@H](CC(C)C)C(=O)N2C[C@H](O)C[C@H]2C(=O)N[C@@H](Cc2c[nH]c3ccccc23)C(=O)N[C@@H](CCNC(=O)C(=O)N(C)C)C(=O)N[C@@H](Cc2cn(CC(=O)OC)c3ccccc23)C(=O)N1C` [Compound 2005] ({CH2CO}-Y[NMeA]NP[Dap](X7)L[Hyp]W[Dab](X7)[Trp(1-CH2CO2Me)][NMeNle][NMeNle]LCG-NH2; thioether N-14): 2.4 nM; `CCCC[C@H]1C(=O)N(C)[C@@H](CCCC)C(=O)N[C@@H](CC(C)C)C(=O)N[C@H](C(=O)NCC(N)=O)CSCC(=O)N[C@@H](Cc2ccc(O)cc2)C(=O)N(C)[C@@H](C)C(=O)N[C@@H](CC(N)=O)C(=O)N2CCC[C@H]2C(=O)N[C@@H](CNC(=O)C(=O)O)C(=O)N[C@@H](CC(C)C)C(=O)N2C[C@H](O)C[C@H]2C(=O)N[C@@H](Cc2c[nH]c3ccccc23)C(=O)N[C@@H](CCNC(=O)C(=O)O)C(=O)N[C@@H](Cc2cn(CC(=O)O)c3ccccc23)C(=O)N1C` [Compound 4001] ({CH2CO}-Y[NMeA]NP[Dap](Oxalyl)L[Hyp]W[Dab](Oxalyl)[Trp(1-CH2COOH)][NMeNle][NMeNle]LCG-NH2; thioether N-14): 3.6 nM.
With `CCCC[C@H]1C(=O)N(C)[C@@H](CCCC)C(=O)N[C@@H](CC(C)C)C(=O)N[C@H](C(=O)NCC(N)=O)CSCC(=O)N[C@@H](Cc2ccc(O)cc2)C(=O)N(C)[C@@H](C)C(=O)N[C@@H](CC(N)=O)C(=O)N2CCC[C@H]2C(=O)N[C@@H](CNC(=O)C(=O)Oc2ccccc2)C(=O)N[C@@H](CC(C)C)C(=O)N2C[C@H](O)C[C@H]2C(=O)N[C@@H](Cc2c[nH]c3ccccc23)C(=O)N[C@@H](CCNC(=O)C(=O)Oc2ccccc2)C(=O)N[C@@H](Cc2cn(CC(=O)O)c3ccccc23)C(=O)N1C` [Compound 1001] ({CH2CO}-Y[NMeA]NP[Dap](X1)L[Hyp]W[Dab](X1)[Trp(1-CH2COOH)][NMeNle][NMeNle]LCG-NH2; thioether N-14) the figure was 5.4 nM; with `CCCC[C@H]1C(=O)N(C)[C@@H](CCCC)C(=O)N[C@@H](CC(C)C)C(=O)N[C@H](C(=O)NCC(N)=O)CSCC(=O)N[C@@H](Cc2ccc(O)cc2)C(=O)N(C)[C@@H](C)C(=O)N[C@@H](CC(N)=O)C(=O)N2CCC[C@H]2C(=O)N[C@@H](CNC(=O)C(=O)Oc2ccccc2)C(=O)N[C@@H](CC(C)C)C(=O)N2C[C@H](O)C[C@H]2C(=O)N[C@@H](Cc2c[nH]c3ccccc23)C(=O)N[C@@H](CCNC(=O)C(=O)Oc2ccccc2)C(=O)N[C@@H](Cc2cn(CC(=O)OC)c3ccccc23)C(=O)N1C` [Compound 3003] ({CH2CO}-Y[NMeA]NP[Dap](X1)L[Hyp]W[Dab](X1)[Trp(1-CH2CO2Me)][NMeNle][NMeNle]LCG-NH2; thioether N-14), 0.64 nM.
Next, `CCCC[C@H]1C(=O)N(C)[C@@H](CCCC)C(=O)N[C@@H](CC(C)C)C(=O)N[C@H](C(=O)NCC(N)=O)CSCC(=O)N[C@@H](Cc2ccc(O)cc2)C(=O)N(C)[C@@H](C)C(=O)N[C@@H](CC(N)=O)C(=O)N2CCC[C@H]2C(=O)N[C@@H](CNC(=O)C(=O)O)C(=O)N[C@@H](CC(C)C)C(=O)N2C[C@H](O)C[C@H]2C(=O)N[C@@H](Cc2c[nH]c3ccccc23)C(=O)N[C@@H](CCNC(=O)C(=O)O)C(=O)N[C@@H](Cc2cn(CC(=O)OC)c3ccccc23)C(=O)N1C` [Compound 5001] ({CH2CO}-Y[NMeA]NP[Dap](Oxalyl)L[Hyp]W[Dab](Oxalyl)[Trp(1-CH2CO2Me)][NMeNle][NMeNle]LCG-NH2; thioether N-14): 2.6 nM; `CCCC[C@H]1C(=O)N(C)[C@@H](CCCC)C(=O)N[C@@H](CC(C)C)C(=O)N[C@H](C(=O)NCC(N)=O)CSCC(=O)N[C@@H](Cc2ccc(O)cc2)C(=O)N(C)[C@@H](C)C(=O)N[C@@H](CC(N)=O)C(=O)N2CCC[C@H]2C(=O)N[C@@H](CNC(=O)C(=O)Nc2cccc(F)c2)C(=O)N[C@@H](CC(C)C)C(=O)N2C[C@H](O)C[C@H]2C(=O)N[C@@H](Cc2c[nH]c3ccccc23)C(=O)N[C@@H](CCNC(=O)C(=O)Nc2cccc(F)c2)C(=O)N[C@@H](Cc2cn(CC(=O)OC)c3ccccc23)C(=O)N1C` [Compound 2003] ({CH2CO}-Y[NMeA]NP[Dap](X4)L[Hyp]W[Dab](X4)[Trp(1-CH2CO2Me)][NMeNle][NMeNle]LCG-NH2; thioether N-14): 370 nM.
